The target of test [1] is T1, recombinant human GBA1 (rhGBA1, Cerezyme) (Homo sapiens, UniProt P04062, R534H).
T1 construct: purchased Cerezyme
T1 sequence (P04062 40-536 R534H): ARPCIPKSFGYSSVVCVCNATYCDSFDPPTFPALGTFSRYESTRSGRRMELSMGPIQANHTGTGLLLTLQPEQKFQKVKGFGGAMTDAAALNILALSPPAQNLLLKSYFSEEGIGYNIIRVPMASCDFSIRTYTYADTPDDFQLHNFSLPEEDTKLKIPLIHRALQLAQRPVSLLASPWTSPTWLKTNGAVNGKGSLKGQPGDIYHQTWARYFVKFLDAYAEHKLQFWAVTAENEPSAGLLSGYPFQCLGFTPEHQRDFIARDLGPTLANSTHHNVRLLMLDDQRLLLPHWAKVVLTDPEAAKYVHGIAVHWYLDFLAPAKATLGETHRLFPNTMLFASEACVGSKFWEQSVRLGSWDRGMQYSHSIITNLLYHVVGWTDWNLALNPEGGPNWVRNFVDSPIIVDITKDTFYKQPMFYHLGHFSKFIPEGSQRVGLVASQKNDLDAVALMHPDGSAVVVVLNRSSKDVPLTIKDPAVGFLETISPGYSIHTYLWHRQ
Description: Thermostability of rhGBA1, label-free differential scanning fluorimetry (Tycho NT.6). As to conditions: rhGBA1 at 1 μM, 20 mM HEPES pH 7.0, 100 mM NaCl, 0.5% DMSO, 2 h room temperature; N. D. = not determined due to a lack of stabilisation effect. The test is classed as binding.
Description: Samples were incubated at room temperature for 2
hours before measurement in the Tycho NT6.
Thermostability assays in rhGBA (Cerezyme)
Varying concentrations of peptides were incubated with 1 µM rhGBA1 in 20 mM HEPES pH 7.0 with 100 mM NaCl, with a final DMSO concentration of 0.5 %, for 2 hours at room temperature. Melting

Test [2] relates to rhGBA1 (Cerezyme) in plasma. Kind of test: Stabilisation of rhGBA1 in plasma, 4-MU activity. To be noted: rhGBA1 10 nM in plasma, peptides 0.001-10 μM or Ambroxol 100-1000 μM, 0-120 minutes, 0.5% DMSO. It counts as biochemical, human. The procedure:
We then investigated whether peptides L4, D8, and D12 could stabilise rhGBA1 in plasma. […] The solutions were then incubated with 4-MU-β-D-Glu for an additional 30 minutes, and the remaining rhGBA1 activity was determined.
Specifically, high concentrations of all peptides (10–1 μM) led to enzyme binding but also GBA1 inhibition after short incubations (0 to 30 minutes). […] To discard potential degradation of D8 and D12 during plasma experiments, the peptides were incubated in plasma at 0.1 μM for 2 hours, followed by the addition of rhGBA1 to measure its activity. This was compared to controls where D8 and D12 were added to plasma and directly tested for GBA1 activity.
Fig. 3 Stabilisation of rhGBA1 (10 nM) in plasma by cyclic peptides D8 and D12. […] Control contained 0.5% DMSO. Error ranges depict standard deviations from n = 3 replicates, measured in technical duplicates. *p < 0.05, **p < 0.01, ***p < 0.001.
Selective Cyclic Peptide Ligands as GBA1 Stabilizers Katzy et al. curves were determined in triplicate using the Tycho NT.6 (NanoTemper), according to manufacturer […]
2.9. Cerezyme Stabilization studies in plasma […]
Specific GBA1 activity was determined as described above, with 25 µL of sample incubated for 30 min with 3.7 mM 4MU-β-Glc substrate.

SMILES strings stand for the structures.

Take `Nc1c(Br)cc(Br)cc1CN[C@H]1CC[C@H](O)CC1` [Ambroxol, reference compound]: the “ΔTi,max” value in test [1] was found to be 12.3 ± 5.4 °C. In test [2], the “stabilisation of rhGBA1 against degradation in plasma” value was “no stabilisation effect”.
